Source: ChEMBL document CHEMBL3885881, “DrugMatrix”

Species: Rattus norvegicus
Format: toxicity, organism-based, Sprague-Dawley
Conditions: in vivo, po, 24 h, route oral GAVAGE, time 1 day, vehicle 100 % SALINE; for ABSOLUTE BASOPHIL / ABSOLUTE EOSINOPHIL / ABSOLUTE LYMPHOCYTE / ABSOLUTE MONOCYTE / BASOPHIL / EOSINOPHIL / ERYTHROCYTE COUNT / HEMATOCRIT / HEMOGLOBIN / LEUKOCYTE COUNT / LYMPHOCYTE / MEAN CORPUSCULAR HEMOGLOBIN / MEAN CORPUSCULAR HEMOGLOBIN CONCENTRATION / MEAN CORPUSCULAR VOLUME / MONOCYTE / NEUTROPHIL / PLATELET COUNT: tissue Blood; for ALANINE AMINOTRANSFERASE / ALBUMIN / ALKALINE PHOSPHATASE / ASPARTATE AMINOTRANSFERASE / BLOOD UREA NITROGEN / CARBON DIOXIDE / CHLORIDE / CHOLESTEROL / CREATINE PHOSPHOKINASE / CREATININE / GLUCOSE / LACTATE DEHYDROGENASE / LIPASE / PHOSPHORUS / POTASSIUM / SODIUM / TOTAL BILIRUBIN / TOTAL PROTEIN / URIC ACID: tissue Plasma
[1] = 0 mg/kg, vehicle control, dose level Control
[2] = […], dose 7.5 mg/Kg, dose level High

Description: DrugMatrix - Regimen: Single

`Nc1ncnc2c1ncn2[C@@H]1O[C@H](CO)[C@@H](O)[C@H]1F` [2'-BETA-FLUORO-2',3'-DEOXYADENOSINE] gave an ABSOLUTE BASOPHIL [1] of 73.3 cells/µL, an ABSOLUTE EOSINOPHIL [1] of 86.7 cells/µL and an ABSOLUTE LYMPHOCYTE [1] of 8400 cells/µL. The ABSOLUTE MONOCYTE [1] was 350 cells/µL, the BASOPHIL [1] was 0.63% and the EOSINOPHIL [1] was 0.73%. The “ERYTHROCYTE COUNT” value [1] was 6.55 x10E6/uL, the HEMATOCRIT [1] was 42.83% and the HEMOGLOBIN [1] was 13.6 G/DL. For the same molecule, the “LEUKOCYTE COUNT” value [1] was 11.33 x10E3/uL, the LYMPHOCYTE [1] was 74.77% and the “MEAN CORPUSCULAR HEMOGLOBIN” value [1] was 20.77 pg. For the same molecule, the “MEAN CORPUSCULAR HEMOGLOBIN CONCENTRATION” value [1] was 31.7 G/DL, the “MEAN CORPUSCULAR VOLUME” value [1] was 65.53 fL and the MONOCYTE [1] was 3%. The NEUTROPHIL [1] was 20.2%, the “PLATELET COUNT” value [1] was 1394.33 x10E3/uL and the “ALANINE AMINOTRANSFERASE” value [1] was 34 u/L. For the same molecule, the ALBUMIN [1] was 4.03 G/DL, the “ALKALINE PHOSPHATASE” value [1] was 345.33 u/L and the “ASPARTATE AMINOTRANSFERASE” value [1] was 69.67 u/L. For the same molecule, the “BLOOD UREA NITROGEN” value [1] was 14.33 mg/dL, the “CARBON DIOXIDE” value [1] was 46 mmol/L and the CHLORIDE [1] was 102.67 MEQ/L. The CHOLESTEROL [1] was 85 mg/dL, the “CREATINE PHOSPHOKINASE” value [1] was 292 u/L and the CREATININE [1] was 0.2 mg/dL. The GLUCOSE [1] was 168 mg/dL, the “LACTATE DEHYDROGENASE” value [1] was 114.33 u/L and the LIPASE [1] was 13 u/L. It also gave a PHOSPHORUS [1] of 11.2 mg/dL, a POTASSIUM [1] of 7.07 MEQ/L and an SODIUM [1] of 144.67 MEQ/L. The “TOTAL BILIRUBIN” value [1] was 0.27 mg/dL, the “TOTAL PROTEIN” value [1] was 6.57 G/DL and the “URIC ACID” value [1] was 0.73 mg/dL. For the same molecule, the ABSOLUTE BASOPHIL [2] was 36.7 cells/µL, the ABSOLUTE EOSINOPHIL [2] was 40 cells/µL and the ABSOLUTE LYMPHOCYTE [2] was 7660 cells/µL. It also gave an ABSOLUTE MONOCYTE [2] of 240 cells/µL, a BASOPHIL [2] of 0.37% and an EOSINOPHIL [2] of 0.43%. For the same molecule, the “ERYTHROCYTE COUNT” value [2] was 7.06 x10E6/uL, the HEMATOCRIT [2] was 46.1% and the HEMOGLOBIN [2] was 14.4 G/DL. The “LEUKOCYTE COUNT” value [2] was 9.56 x10E3/uL, the LYMPHOCYTE [2] was 79.8% and the “MEAN CORPUSCULAR HEMOGLOBIN” value [2] was 20.4 pg. The “MEAN CORPUSCULAR HEMOGLOBIN CONCENTRATION” value [2] was 31.2 G/DL, the “MEAN CORPUSCULAR VOLUME” value [2] was 65.37 fL and the MONOCYTE [2] was 2.57%. The NEUTROPHIL [2] was 16.23%, the “PLATELET COUNT” value [2] was 1451.67 x10E3/uL and the “ALANINE AMINOTRANSFERASE” value [2] was 40.67 u/L. The ALBUMIN [2] was 4.03 G/DL, the “ALKALINE PHOSPHATASE” value [2] was 348 u/L and the “ASPARTATE AMINOTRANSFERASE” value [2] was 71.67 u/L. The “BLOOD UREA NITROGEN” value [2] was 15 mg/dL, the “CARBON DIOXIDE” value [2] was 42.67 mmol/L and the CHLORIDE [2] was 103.33 MEQ/L. For the same molecule, the CHOLESTEROL [2] was 98.67 mg/dL, the “CREATINE PHOSPHOKINASE” value [2] was 439.67 u/L and the CREATININE [2] was 0.3 mg/dL. For the same molecule, the GLUCOSE [2] was 185.67 mg/dL, the “LACTATE DEHYDROGENASE” value [2] was 90 u/L and the LIPASE [2] was 12 u/L. For the same molecule, the PHOSPHORUS [2] was 11.67 mg/dL, the POTASSIUM [2] was 6.3 MEQ/L and the SODIUM [2] was 146 MEQ/L. The “TOTAL BILIRUBIN” value [2] was 0.27 mg/dL, the “TOTAL PROTEIN” value [2] was 6.7 G/DL and the “URIC ACID” value [2] was 0.97 mg/dL.
